Measurements from patent publication US4575560A, “Insecticidal diaminoguanidine hydrazone compounds” (American Cyanamid Company, priority 1985, dated 1986).
In brackets after ≈: the same amount, converted by molar mass.

What was measured:
Southern Armyworm = assay: Southern armyworm test, third-instar larvae on treated Sieva lima bean leaves; assay type: in vivo, Spodoptera eridania (Cramer); settings: for Mortality Rating Southern Armyworm: third-instar larvae
Method in brief: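 Sieva lima bean plants, primary leaves expanded to 1.91 cm, were dipped with agitation for three seconds in test material dissolved in 65% acetone, with further dilutions in acetone, then air-dried in a hood. A treated leaf was placed in a 9 cm petri dish on moist filter paper with 10 third-instar Spodoptera eridania larvae about 1 cm long. Dishes were covered and kept at 80° F. and 50% r.h. Mortality and feeding were assessed after two days.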

Tobacco Budworm = assay: Tobacco budworm LC50 and FD50 (instar not stated); assay type: in vivo, Heliothis virescens (Fabricus); settings: Heliothis virescens, read-out: LC50 Tobacco Budworm
Description: (§1) Test formulations and procedures used for evaluation are as follows:
FD50 = The concentration of insecticide required to reduce insect

[1] = tested on: Tobacco Budworm 1st Instar; assay: Tobacco budworm initial test, treated eggs / newly hatched (1st instar) larvae on treated cotton leaves; assay type: in vivo, Heliothis virescens (Fabricus)
Description: as §1
A. 100 mg of the test material is weighed, placed in a funnel over a 113 g narrow-mouth bottle, rinsed into the bottle with a 35 mL scoop of acetone, followed by a 35 mL scoop of water and another 35 mL scoop of acetone to yield 1000 ppm in 65% acetone. If the material is not soluble, it is broken up with a glass rod and used as a suspension.
B. This stock solution ("A") is used to make 300 ppm solutions or suspensions by pipetting 30 mL of "A" into a bottle containing 70 mL of 50% acetone to yield 300 ppm. Further dilutions in 50% acetone are made as required.
C. Tests requiring 10 ppm acetone solutions: 1 mL of "A" is pipetted into 99 mL of acetone to yield 10 ppm. Additional dilutions are made using 50% acetone as required.
Tobacco Budworm--Heliothis virescens (Fabricus)
A cotton plant with two true leaves expanded is dipped for three seconds with agitation in 300 ppm solution. A 1.27 to 1.91 cm square of cheesecloth with about 50 to 100 budworm eggs 0-24 hours old is also dipped in the test solution and placed on a leaf of the cotton plant, all being placed in the hood to dry. The leaf with the treated budworm eggs is removed from the plant and placed in a 226 g Dixie cup with a wet 5 cm piece of dental wick and covered with a lid. The other leaf is placed in a similar cup with a wick and a piece of cheesecloth infested with 50-100 newly hatched larvae is added before covering the cup with a lid. After three days at 80° F., 50% relative humidity, observations of egg hatch are made, as well as kill of newly hatched larvae, any inhibition of feeding, or interference of any sort with normal development.

[2] = tested on: Tobacco Budworm 3rd Instar; assay: Tobacco budworm secondary test, third-instar larvae on treated cotton cotyledons; assay type: in vivo, Heliothis virescens (Fabricus)
Description: Three cotton plants with just expanded cotyledons are dipped in 1000 ppm solution and placed in the hood to dry. When dry, each cotyledon is cut in half, and 10 are each placed in a 28 g plastic medicine cup containing a 1.25 cm dental wick saturated with water, and one third-instar budworm larva is added. The cup is capped and held for three days at 80° F., 50% relative humidity, after which mortality counts are made.

For CN(C)C(=O)N(N=Cc1ccc(OC(F)(F)C(F)F)cc1)C(=N)NN=Cc1ccc(OC(F)(F)C(F)F)cc1 [HCF2 CF2 O / HCF2 CF2 O / CH3 / CH3, 4,4-dimethyl-2-{[p-(1,1,2,2-tetrafluoroethoxy)benzylidene]amino}-allophanimidic acid [p-(1,1,2,2-tetrafluoroethoxy)benzylidene]hydrazide], the “Mortality Rating Southern Armyworm” value (Southern Armyworm; 10 ppm) was 0 (No effect), the “Mortality Rating Southern Armyworm” value (Southern Armyworm; 100 ppm) was 9 (100%) and the “Mortality Rating Southern Armyworm” value (Southern Armyworm; 1000 ppm) was 9 (100%). The LC50 (Southern Armyworm; Spodoptera eridania, read-out: LC50 Southern Armyworm) was 7 µg/mL (≈ 12.3 µM), the LC50 (Tobacco Budworm) was 491 µg/mL (≈ 864 µM) and the “Mortality Rating Tobacco Budworm 1st Instar” value ([1]; 100 ppm) was 5 (56-65%). The “Mortality Rating Tobacco Budworm 1st Instar” value ([1]; 300 ppm) was 9 (100%), the “Mortality Rating Tobacco Budworm 3rd Instar” value ([2]; 100 ppm) was 2 (26-35%) and the “Mortality Rating Tobacco Budworm 3rd Instar” value ([2]; 1000 ppm) was 8 (86-99%).
